Experimental data: patent US4670435A, “10,11-dihydro-5H-dibenzo[a,d]cycloheptadiene derivatives in a method for treating cardiac arrhythmia” (priority 1984, dated 1987)
Where a name gives a salt, the structure may show the parent alone.

What was measured:
[1] = system: arrhythmias; experiment: Antiarrhythmic action, aconitine infusion, rat, oral administration; assay type: in vivo, Sprague-Dawley rats; conditions: for ED50: Rattus norvegicus, po, read-out: ED 50% (dose which prolongs the aconitine infusion duration by 50%)
Procedure: (§1) The substances were administered orally to Sprague-Dawley rats weighing 200-250 g. 45 minutes thereafter, the animals were anesthetized with 100 mg/kg of thiobutabarbital Na, administered intraperitoneally. Aconitine, as an arrhythmogenic substance, was infused intravenously into the jugular vein 60 minutes after administration of the substance (dosage rate: 0.005 mg per kg per min). In the case of untreated animals (N=52), arrhythmias appeared in the ECG after 2.74±0.07 minutes, the appearance of these arrhythmias being delayed by antiarrhythmic agents in a dose-dependent manner.
(§2) The dose which prolongs the duration of aconitine infusion by 50%, ie. the ED 50%, was determined from the linear relationship between log dose (mg/kg) of the test substances and the relative prolongation of aconitine infusion duration (Δ%).

[2] = Therapeutic index: quotient of acute toxic dose to antiarrhythmic ED 50%; set-up: species or system Sprague-Dawley rats; conditions: in vivo; Table 2; rat, oral administration; measure of therapeutic index; read-out: Q (quotient of acute toxic dose to antiarrhythmic ED 50%)
Procedure: as §1, §2
(§3) Furthermore, the dose at which toxic symptoms (change in the initial ECG, cyanosis or cramp) occur was determined from the geometric progression of doses (factor 2.154) used in the experiments.
The quotient of acute toxic dose to antiarrhythmic ED 50% was determined as a measure of the therapeutic index of the novel compounds.

[3] = Acute toxicity: dose at which first toxic symptoms (change in initial ECG, cyanosis or cramp) occur, rat, oral; assay type: in vivo, Sprague-Dawley rats; conditions: Table 2, oral administration, geometric progression of doses (factor 2.154)
Procedure: as §1, §3

## CC(C)NCC(C)(O)CC1c2ccccc2CCc2ccccc21 (stereo not shown) [Example 1, N-[2-hydroxy-2-methyl-3-(10,11-dihydro-5H-dibenzocycloheptadienyl)-propyl]-N-isopropylamine hydrochloride]
[1]
  ED50: 6.51 mg/kg

## CNCC(C)(O)CC1c2ccccc2CCc2ccccc21 (stereo not shown) [Example 3]
[2]
  selectivity ratio: 32
[1]
  ED50: 3.11 mg/kg
[3]
  Toxic dose (dose at which the first toxic symptoms are observed): 100 mg/kg

## CC(O)(CNC(C)(C)C)CC1c2ccccc2CCc2ccccc21 (stereo not shown) [Example 4]
[2]
  selectivity ratio: 33
[1]
  ED50: 6.47 mg/kg
[3]
  Toxic dose (dose at which the first toxic symptoms are observed): 215 mg/kg

## CCCNCC(C)(O)CC1c2ccccc2CCc2ccccc21 (stereo not shown) [Example 5]
[1]
  ED50: 7.78 mg/kg

## COCC(C)NCC(C)(O)CC1c2ccccc2CCc2ccccc21 (stereo not shown) [Example 6]
[1]
  ED50: 6.83 mg/kg

## CC(O)(CC1c2ccccc2CCc2ccccc21)CN1CCC(O)(c2ccccc2)CC1 (stereo not shown) [Example 9]
[1]
  ED50: 2.57 mg/kg

## C=C[C@H]1C[N@@]2CC[C@H]1C[C@@H]2[C@@H](O)c1ccnc2ccc(OC)cc12 [Quinidine, quinidine, reference compound]
[2]
  selectivity ratio: 11
[1]; Table 2, rat, oral administration, 60 minutes before aconitine i.v. infusion 0.005 mg per kg per min
  ED 50% (dose which prolongs the aconitine infusion duration by 50%): 43.5 mg/kg
[3]
  Toxic dose (dose at which the first toxic symptoms are observed): 464 mg/kg
